Values quoted from earlier work in patent EP4520318A1, “TRANSDERMAL THERAPEUTIC SYSTEM OF LUMATEPERONE” (Luye Pharma Switzerland AG, priority 2023, dated 2025).

Conditions: oral administration

Compound: CN1CCN2c3c(cccc31)[C@@H]1CN(CCCC(=O)c3ccc(F)cc3)CC[C@@H]12 [lumateperone, 1-(4-fluoro-phenyl)-4-((6bR, 10aS)-3-methyl-2,3,6b,9,10,10a-hexahydro-1H,7H-pyrido[3',4':4,5]pyrrolo[1,2,3-de]quinoxalin-8-yl)-butan-1-one]
- oral bioavailability: about 4.4%
